In paper PMC7413254 (Nature Communications, 2020):
Where two headings read alike, the source gives them in different places.

How the values were obtained:
PfCRT^3D7 [1] = target: T1, PfCRT^3D7 (Plasmodium falciparum, UniProt Q8IBZ9); assay: cell-based; assay type: cell-based; conditions: for activity at 5000 µM: [test solute]i = 5 mM (intracellular)
Summary of the method: (§1)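 Transport measured in Xenopus oocytes expressing the transporters, 1.5 h at 27.5 °C in ND96 pH 5.5 unless noted. For trans-stimulation, VF-6 injected in 25 nL ND96 at pH 5.0–7.0 or Na^+-free (choline) buffer; intracellular levels based on ~400 nL oocyte volume. Ten oocytes per treatment, ≥4 experiments.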

PfNT1 = target: T2, PfNT1 (Plasmodium falciparum, UniProt Q8IDM6); assay: cell-based; assay type: cell-based; conditions: for activity at 5000 µM: total [3H]CQ transport
T2 construct: expressed in transfected cells; host or cells: Xenopus laevis oocytes (stage V-VI), cRNA-injected
Summary of the method: as §1

PfCRT^Dd2 = PfCRT^Dd2 (Plasmodium falciparum, UniProt Q9N623, A220S/I356T/K76T/M74I/N326S/N75E/Q271E/R371I); assay: cell-based; assay type: cell-based; conditions: […]; for activity at 45000 µM: [test solute]i = 45 mM (30 mM for some solutes due to solubility)
Summary of the method: as §1

PfCRT^Ecu1110 = PfCRT^Ecu1110 (Plasmodium falciparum, UniProt Q9N623, A220S/I356L/K76T/N326D); assay: cell-based; assay type: cell-based; conditions: […]
Summary of the method: as §1

PfCRT^3D7 [2] = target: T1, PfCRT^3D7; assay: cell-based; assay type: cell-based; conditions: total [3H]CQ transport; for inhibition at 500 µM: [test solute] = 0.5 mM; for inhibition at 1000 µM: [test solute] = 1 mM; for inhibition at 2000 µM: [test solute] = 2 mM
Summary of the method: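 PfCRT-expressing and control oocytes: ND96 pH 5.5 → 1.5 h at 27.5 °C → ice-cold ND96 wash → 10% SDS lysis → scintillation count.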

non-expressing oocytes = assay type: cell-based, Xenopus laevis; conditions: total [3H]CQ transport; for Uptake of [3H]CQ (% non-expressing oocyte control), trans-stimulation: non-expressing oocytes, normalised to the oocyte type control; for Uptake of [3H]CQ (% PfCRTDd2 control), trans-stimulation, non-expressing oocytes: mean ± SEM, SEM
Summary of the method: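 Oocytes (ten per treatment, ≥4 independent frogs/days) were preloaded by injecting VF-6 in 25 nL ND96 at pH 5.0, 5.5, 6.0 or 7.0, or Na^+-free choline buffer, then uptake run 1.5 h, 27.5 °C, ND96 pH 5.5 by default. Internal concentrations assumed ~400 nL oocyte volume.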

PfCRT = assay: Potential co-substrates tested for influx of VF-6 via PfCRT into the oocyte; assay type: cell-based, Plasmodium falciparum; design: key: X: Compounds that have been tested as potential co-substrates but are not required for influx of VF-6 via PfCRT into the oocyte
[3] = PfCRT3D7 oocytes, normalised to the oocyte type control, read-out: Uptake of [3H]CQ (% PfCRT3D7 control), cis-inhibition
[4] = mean ± SEM, SEM, read-out: Uptake of [3H]CQ (% PfCRTDd2 control), cis-inhibition, PfCRT3D7

T1 sequence (Q8IBZ9 59-398): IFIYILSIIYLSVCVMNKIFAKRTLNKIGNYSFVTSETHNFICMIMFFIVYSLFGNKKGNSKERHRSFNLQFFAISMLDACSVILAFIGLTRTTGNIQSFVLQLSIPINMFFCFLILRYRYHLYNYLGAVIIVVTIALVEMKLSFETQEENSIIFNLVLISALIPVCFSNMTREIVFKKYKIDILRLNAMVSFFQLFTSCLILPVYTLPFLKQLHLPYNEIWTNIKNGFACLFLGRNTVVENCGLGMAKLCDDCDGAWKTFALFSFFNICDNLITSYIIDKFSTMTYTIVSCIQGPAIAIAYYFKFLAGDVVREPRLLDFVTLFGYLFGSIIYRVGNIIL
T2 sequence (Q8IDM6 whole entry): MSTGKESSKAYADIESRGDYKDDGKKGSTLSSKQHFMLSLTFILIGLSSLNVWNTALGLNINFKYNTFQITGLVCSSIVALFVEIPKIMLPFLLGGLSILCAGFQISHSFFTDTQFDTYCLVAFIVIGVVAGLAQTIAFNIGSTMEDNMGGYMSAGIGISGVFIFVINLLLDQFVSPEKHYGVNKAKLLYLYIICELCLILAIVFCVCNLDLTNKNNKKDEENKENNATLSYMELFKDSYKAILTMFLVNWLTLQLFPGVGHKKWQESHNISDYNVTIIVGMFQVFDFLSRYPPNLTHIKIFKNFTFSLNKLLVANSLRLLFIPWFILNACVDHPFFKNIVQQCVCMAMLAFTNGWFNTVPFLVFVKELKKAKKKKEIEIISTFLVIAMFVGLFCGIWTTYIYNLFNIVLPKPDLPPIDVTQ
PfCRT^Ecu1110, sequence (Q9N623 whole entry A220S/I356L/K76T/N326D): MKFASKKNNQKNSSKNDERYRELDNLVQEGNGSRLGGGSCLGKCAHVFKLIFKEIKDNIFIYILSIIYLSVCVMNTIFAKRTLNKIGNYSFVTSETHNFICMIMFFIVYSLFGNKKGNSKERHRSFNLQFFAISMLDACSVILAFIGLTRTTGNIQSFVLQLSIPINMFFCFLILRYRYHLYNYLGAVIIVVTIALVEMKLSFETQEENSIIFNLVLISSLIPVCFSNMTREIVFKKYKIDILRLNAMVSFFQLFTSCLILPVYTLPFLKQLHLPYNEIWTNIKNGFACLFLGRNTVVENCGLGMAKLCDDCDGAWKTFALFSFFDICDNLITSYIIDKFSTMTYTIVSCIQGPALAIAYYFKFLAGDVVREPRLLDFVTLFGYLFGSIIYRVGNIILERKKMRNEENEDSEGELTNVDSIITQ
PfCRT^Dd2, sequence (Q9N623 whole entry A220S/I356T/K76T/M74I/N326S/N75E/Q271E/R371I): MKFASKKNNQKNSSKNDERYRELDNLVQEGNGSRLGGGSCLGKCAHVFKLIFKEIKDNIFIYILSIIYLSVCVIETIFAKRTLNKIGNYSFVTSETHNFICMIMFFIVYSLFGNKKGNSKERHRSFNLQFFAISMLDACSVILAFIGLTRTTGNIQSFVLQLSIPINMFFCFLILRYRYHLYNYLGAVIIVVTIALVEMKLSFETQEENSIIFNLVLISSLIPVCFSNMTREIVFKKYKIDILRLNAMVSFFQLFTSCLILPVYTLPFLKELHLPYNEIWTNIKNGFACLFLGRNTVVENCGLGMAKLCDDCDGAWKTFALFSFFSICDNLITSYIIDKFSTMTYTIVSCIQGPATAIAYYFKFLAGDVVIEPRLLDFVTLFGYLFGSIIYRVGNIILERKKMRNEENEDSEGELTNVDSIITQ

Structure (SMILES): N[C@@H](CS)C(=O)O [L-cysteine]
- activity at 5000 µM (PfCRT^3D7 [1]; PfCRT3D7 oocytes, normalised to oocyte type control, read-out: PfCRT-mediated [3H]CQ transport, trans-stimulation (% PfCRT3D7 control)): 98 ± 3.1%
- activity at 45000 µM (PfCRT^3D7 [1]; SEM, read-out: Uptake of [3H]CQ (% PfCRTDd2 control), trans-stimulation, PfCRT3D7): 3.2 ± 0.08%
- activity at 45000 µM (PfCRT^3D7 [1]; read-out: PfCRT-mediated [3H]CQ transport, trans-stimulation (% PfCRT3D7 control)): 94 ± 4.4%
- activity at 45000 µM (PfCRT^3D7 [1]; read-out: Uptake of [3H]CQ (% PfCRT3D7 control), trans-stimulation): 96 ± 3.5%
- activity at 5000 µM (PfCRT^3D7 [1]; total [3H]CQ transport, mean ± SEM, SEM, read-out: Uptake of [3H]CQ (% PfCRTDd2 control), trans-stimulation, PfCRT3D7): 3.3 ± 0.05%
- activity at 5000 µM (PfNT1; PfNT1 oocytes, [test solute]i = 5 mM, normalised to the oocyte type control, read-out: Uptake of [3H]CQ (% PfNT1 control), trans-stimulation): 98 ± 3.7%
- activity at 45000 µM (PfNT1; SEM, read-out: Uptake of [3H]CQ (% PfCRTDd2 control), trans-stimulation, PfNT1): 2.6 ± 0.05%
- activity at 45000 µM (PfNT1; read-out: Uptake of [3H]CQ (% PfNT1 control), trans-stimulation): 99 ± 3.2%
- activity at 5000 µM (PfNT1; [test solute]i = 5 mM (intracellular), mean ± SEM, SEM, read-out: Uptake of [3H]CQ (% PfCRTDd2 control), trans-stimulation, PfNT1): 2.6 ± 0.08%
- activity at 5000 µM (PfCRT^Dd2; pH 5.5, read-out: PfCRT-mediated [3H]CQ transport, trans-stimulation (% PfCRTDd2 control), [test solute]i = 5 mM (intracellular), PfCRTDd2 oocytes, normalised to oocyte type control): 97 ± 2.6%
- activity at 5000 µM (PfCRT^Dd2; pH 5.5, read-out: Uptake of [3H]CQ (% PfCRTDd2 control), trans-stimulation, PfCRTDd2, total [3H]CQ transport, [test solute]i = 5 mM (intracellular), mean ± SEM, SEM): 99 ± 3.2%
- activity at 5000 µM (PfCRT^Dd2; pH 5.5, read-out: Uptake of [3H]CQ (% PfCRTDd2 control), trans-stimulation, PfCRTDd2 oocytes, [test solute]i = 5 mM, total [3H]CQ transport, normalised to the oocyte type control): 99 ± 3.2%
- activity at 45000 µM (PfCRT^Dd2; pH 5.5, read-out: Uptake of [3H]CQ (% PfCRTDd2 control), trans-stimulation, PfCRTDd2 oocytes, total [3H]CQ transport, normalised to the oocyte type control): 101 ± 3.7%
- activity at 5000 µM (PfCRT^Dd2; pH 5.5, read-out: [3H]CQ transport (% PfCRTDd2 control), trans-stimulation, PfCRTDd2, trans-stimulation, [test solute]i = 5 mM (injected), PfCRT-mediated component (background subtracted), mean ± SEM, SEM): 97 ± 2.6%
- activity at 45000 µM (PfCRT^Dd2; pH 5.5, read-out: [3H]CQ transport (% PfCRTDd2 control), trans-stimulation, PfCRTDd2, trans-stimulation, PfCRT-mediated component (background subtracted), mean ± SEM, SEM): 99 ± 4.5%
- activity at 5000 µM (PfCRT^Ecu1110; pH 5.5, read-out: PfCRT-mediated [3H]CQ transport, trans-stimulation (% PfCRTEcu1110 control), [test solute]i = 5 mM (intracellular), PfCRTEcu1110 oocytes, normalised to oocyte type control): 95 ± 3%
- activity at 5000 µM (PfCRT^Ecu1110; pH 5.5, read-out: Uptake of [3H]CQ (% PfCRTEcu1110 control), trans-stimulation, PfCRTEcu1110 oocytes, [test solute]i = 5 mM, total [3H]CQ transport, normalised to the oocyte type control): 97 ± 4.2%
- activity at 45000 µM (PfCRT^Ecu1110; pH 5.5, read-out: Uptake of [3H]CQ (% PfCRTEcu1110 control), trans-stimulation, PfCRTEcu1110 oocytes, [test solute]i = 45 mM (30 mM for some solutes due to solubility), total [3H]CQ transport, normalised to the oocyte type control): 100 ± 3.5%
- activity at 5000 µM (PfCRT^Ecu1110; read-out: Uptake of [3H]CQ (% PfCRTDd2 control), trans-stimulation, PfCRTEcu1110, total [3H]CQ transport, [test solute]i = 5 mM (intracellular), mean ± SEM, SEM): 35 ± 1.4%
- activity at 45000 µM (PfCRT^Ecu1110; read-out: Uptake of [3H]CQ (% PfCRTDd2 control), trans-stimulation, PfCRTEcu1110, total [3H]CQ transport, [test solute]i = 45 mM (intracellular; 30 mM for some solutes due to solubility), mean ± SEM, SEM): 36 ± 2.7%
- inhibition at 500 µM (PfCRT^3D7 [2]; [3]): 99 ± 3.2%
- inhibition at 1000 µM (PfCRT^3D7 [2]; [3]): 100 ± 3.6%
- inhibition at 2000 µM (PfCRT^3D7 [2]; [3]): 99 ± 4.2%
- inhibition at 500 µM (PfCRT^3D7 [2]; [4]): 3.4 ± 0.05%
- inhibition at 1000 µM (PfCRT^3D7 [2]; [4]): 2.5 ± 0.05%
- inhibition at 2000 µM (PfCRT^3D7 [2]; [4]): 3.1 ± 0.08%
- Uptake of [3H]CQ (% non-expressing oocyte control), trans-stimulation (non-expressing oocytes; [test solute]i = 5 mM): 98 ± 2.2 % non-expressing oocyte control
- Uptake of [3H]CQ (% non-expressing oocyte control), trans-stimulation (non-expressing oocytes; [test solute]i = 45 mM (30 mM for some solutes due to solubility)): 100 ± 4.2 % non-expressing oocyte control
- Uptake of [3H]CQ (% PfCRTDd2 control), trans-stimulation, non-expressing oocytes (non-expressing oocytes; [test solute]i = 5 mM (intracellular)): 3.1 ± 0.07 % PfCRTDd2 control
- Uptake of [3H]CQ (% PfCRTDd2 control), trans-stimulation, non-expressing oocytes (non-expressing oocytes; [test solute]i = 45 mM (intracellular; 30 mM for some solutes due to solubility)): 2.2 ± 0.03 % PfCRTDd2 control
- Tested as potential co-substrate but not required for influx of VF-6 via PfCRT into the oocyte (PfCRT): X
